Data set [1] addresses T1, GLP-1R (Homo sapiens, UniProt P43220).
T1 construct: host or cells: HEK293
In words: In vitro GLP-1R agonistic activity test (cAMP, HEK293 cell line). Particulars: cAMP, HEK293 cells expressing GLP-1R; read-out: GLP-1 EC50. In kind it is cell-based. How it is done: The cell lines were constructed by Pharmaron Inc. See details in the table below.
The test compounds were diluted at a 5-fold dilution factor in 10 points, starting from an initial concentration of 200 nM.
1) The cell lines were cultured respectively in complete medium at 37° C. and 5% CO2.
1) Eu-cAMP tracer was freeze-thawed and diluted 50 fold with detection buffer; and Ulight-anti-cAMP was freeze-thawed and diluted 150 fold with detection buffer.
3) 10 μL of Eu-cAMP tracer was added and then 10 μL of Uligh-anti-cAMP was added into experimental wells respectively.
4) The reaction plate was centrifuged at 200 g at room temperature for 30 s and left for stand at 25° C. for 1 h.

The nature of data set [2]: Pharmacokinetic properties in Cynomolgus macaques. Particulars: cynomolgus monkey, in vivo, male cynomolgus macaques, plasma; for AUC(0-t): read-out: AUC0-240 h; for AUC(0-inf): read-out: AUCINF; for Cmax: read-out: Cmax; for half-life: read-out: T1/2 (converted); for Tmax: read-out: Tmax. How it is done: To test the pharmacokinetic profiles of the compounds in Cynomolgus macaques.
Non-juvenile male cynomolgus macaques were used for experiment, 3 cynomolgus macaques for each compound. Whole blood was collected at time points of 1 h, 2 h, 4 h, 8 h, 16 h, 24 h, 48 h, 72 h, 120 h, 168 h and 240 h after administration, to prepare plasma. The drug concentration was analyzed by LC-MS/MS method, and the pharmacokinetic parameters were calculated using Phoenix WinNonlin software.

Data set [3] in a line: Metabolic stability in human kidney S9. In kind it is in vitro ADME. Here is the method:
The metabolic stability of the compounds in human kidney was evaluated to determine whether the drugs would be degraded by metabolic enzymes in the kidney to affect the efficacies and pharmacokinetics. 1. Relevant solutions were formulated. 2. a) With cofactors (NADPH & UDPGA): NADPH and UDPGA were added during the incubation. […] H2O was added into the culture solution. The final concentration of KS9 Fractions was 1 mg/mL. The mixture was pre-heated at 37° C. for 10 min. […] In this study, 7-hydroxy-coumarin and Raloxifene were used as the positive control. The final concentration of the positive control compounds was 0.2 μM, and the final concentration of the test compound was 1 μM. The culture solution was incubated in water bath at 37° C. 4. At 0.5, 5, 15, 30 and 60 min, volume aliquots were taken from the reaction solution and the reaction was stopped by adding acetonitrile. The samples were centrifuged for 30 min. The supernatant was taken and mixed with ultrapure water for subsequent LC-MS/MS analysis. 5. Data analysis: All calculation was conducted using Microsoft Excel. Peak areas were determined and slope values were calculated based on the extracted ion chromatograms.

The mark [4] stands for this setting: Human kidney S9 1 mg/mL, +Cofactors (NADPH & UDPGA), 37° C., read-out: in vitro CLint.
Setting [5] is: Human kidney S9 1 mg/mL, +Cofactors (NADPH & UDPGA), 37° C., read-out: in vitro t1/2.

Results on five molecules are retold here after patent US20260234211A1, “POLYPEPTIDE HAVING MODIFIED STRUCTURE AND USE THEREOF” (Guangdong Raynovent Biotech Co., Ltd., priority 2023, published 2026).

The structures appear in SMILES notation. Read-outs that look alike come from different tables or passages of the source. Numbered stars: 1 amine (or outer) side, 2 acyl side, 3 side chain; on linkers, the order of the positions; unused ones are H or OH. Bridge positions count the residues as written; N and C are the ends. Square brackets hold non-standard residues; d marks the D form. Peptide text beside a SMILES is read from it. X2 = O=C(O)CCCCCCCCCCCCCCCCCCC(=O)N[C@@H](CCC(=O)NCCOCCOCC(=O)N[C@@H](CCC(=O)[*:2])C(=O)[*:1])C(=O)O; αMeL = CC(C)C[C@](C)(N)C(=O)O; Aib = CC(C)(N)C(=O)O Bounds are passed on as bounds.

T1 sequence (P43220 24-463, species assumed): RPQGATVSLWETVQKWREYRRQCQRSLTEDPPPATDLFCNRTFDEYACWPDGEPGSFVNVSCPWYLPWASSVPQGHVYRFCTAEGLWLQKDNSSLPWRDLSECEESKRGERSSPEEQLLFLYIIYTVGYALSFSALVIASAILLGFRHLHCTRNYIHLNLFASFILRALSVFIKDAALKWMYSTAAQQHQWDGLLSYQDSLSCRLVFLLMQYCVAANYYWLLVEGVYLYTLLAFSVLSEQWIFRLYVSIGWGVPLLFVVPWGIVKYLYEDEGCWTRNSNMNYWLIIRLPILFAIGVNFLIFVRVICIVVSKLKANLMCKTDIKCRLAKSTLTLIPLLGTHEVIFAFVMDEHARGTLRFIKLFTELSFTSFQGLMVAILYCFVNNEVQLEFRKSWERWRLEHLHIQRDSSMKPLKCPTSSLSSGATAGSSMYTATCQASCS

With `CC[C@H](C)[C@H](NC(=O)[C@H](Cc1ccccc1)NC(=O)[C@@H]1CCCCNC(=O)CN(C(=O)[C@@H](N)CCCCNC(=O)[C@@H](N)CCCCNC(=O)CC[C@H](NC(=O)CCCCCCCCCCCCCCCCCCC(=O)O)C(=O)O)CC(=O)NCCCC[C@H](NC(=O)[C@H](CCCCN)NC(=O)[C@H](CC(=O)O)NC(=O)[C@H](CC(C)C)NC(=O)[C@](C)(CC(C)C)NC(=O)[C@@H](NC(=O)[C@H](CO)NC(=O)[C@H](Cc2ccc(O)cc2)NC(=O)[C@H](CC(=O)O)NC(=O)[C@H](CO)NC(=O)[C@@H](NC(=O)[C@H](Cc2ccccc2)NC(=O)[C@@H](NC(=O)CNC(=O)[C@H](CCC(N)=O)NC(=O)C(C)(C)NC(=O)[C@@H](N)Cc2ccc(O)cc2)[C@@H](C)O)[C@@H](C)O)[C@@H](C)CC)C(=O)N[C@@H](C)C(=O)N[C@@H](CCC(N)=O)C(=O)NC(C)(C)C(=O)N1)C(=O)N[C@@H](CCC(=O)O)C(=O)N[C@@H](Cc1ccccc1)C(=O)N[C@@H](CC(C)C)C(=O)N[C@@H](CC(C)C)C(=O)N[C@@H](CCC(=O)O)C(=O)NCC(=O)NCC(=O)N1CCC[C@H]1C(=O)N[C@@H](CO)C(=O)N[C@@H](CO)C(=O)NCC(=O)N[C@@H](C)C(=O)N1CCC[C@H]1C(=O)N1CCC[C@H]1C(=O)N1CCC[C@H]1C(=O)N[C@@H](CO)C(N)=O` [Example 22, YAibQGT FTSDY SIα- MeLLD K^1KAQAib ^1KFIEF LLEGG PSSGA PPPS-NH2 (SEQ ID NO: 25)], the EC50 in data set [1] was determined as 9 pM.
On the same count and under the same terms, under `CC[C@H](C)[C@@H]1NC(=O)[C@H](Cc2ccccc2)NC(=O)[C@@H](NC(=O)C(C)(C)NC(=O)[C@H](CCC(N)=O)NC(=O)[C@H](C)NC(=O)[C@H](CCCCN)NC(=O)[C@H](CCCCN)NC(=O)[C@H](CC(=O)O)NC(=O)[C@H](CC(C)C)NC(=O)[C@](C)(CC(C)C)NC(=O)[C@@H](NC(=O)[C@H](CO)NC(=O)[C@H](Cc2ccc(O)cc2)NC(=O)[C@H](CC(=O)O)NC(=O)[C@H](CO)NC(=O)[C@@H](NC(=O)[C@H](Cc2ccccc2)NC(=O)[C@@H](NC(=O)CNC(=O)[C@H](CCC(N)=O)NC(=O)C(C)(C)NC(=O)[C@@H](N)Cc2ccc(O)cc2)[C@@H](C)O)[C@@H](C)O)[C@@H](C)CC)CCCCNC(=O)CN(C(=O)COCCOCCNC(=O)COCCOCCNC(=O)CC[C@H](NC(=O)CCCCCCCCCCCCCCCCCCC(=O)O)C(=O)O)CC(=O)NCCCC[C@@H](C(=O)NCC(=O)NCC(=O)N2CCC[C@H]2C(=O)N[C@@H](CO)C(=O)N[C@@H](CO)C(=O)NCC(=O)N[C@@H](C)C(=O)N2CCC[C@H]2C(=O)N2CCC[C@H]2C(=O)N2CCC[C@H]2C(=O)N[C@@H](CO)C(N)=O)NC(=O)[C@H](CC(C)C)NC(=O)[C@H](CC(C)C)NC(=O)[C@H](Cc2ccc(O)cc2)NC(=O)[C@H](CCC(=O)O)NC1=O` [Example 14, YAibQGT FTSDY SIα- MeLLD KKAQAib ^1KFIEY LLIKGG PSSGA PPPS-NH2 (SEQ ID NO: 20)] stands 1 pM.
On to `CC[C@H](C)[C@H](NC(=O)[C@H](Cc1ccccc1)NC(=O)[C@@H]1CCCCNC(=O)CN(C(=O)[C@@H](N)CCCCNC(=O)[C@@H](N)CCCCNC(=O)CC[C@H](NC(=O)CCCCCCCCCCCCCCCCCCC(=O)O)C(=O)O)CC(=O)NCCCC[C@H](NC(=O)[C@H](CCCCN)NC(=O)[C@H](CC(=O)O)NC(=O)[C@H](CC(C)C)NC(=O)[C@](C)(CC(C)C)NC(=O)[C@@H](NC(=O)[C@H](CO)NC(=O)[C@H](Cc2ccc(O)cc2)NC(=O)[C@H](CC(=O)O)NC(=O)[C@H](CO)NC(=O)[C@@H](NC(=O)[C@H](Cc2ccccc2)NC(=O)[C@@H](NC(=O)CNC(=O)[C@H](CCC(N)=O)NC(=O)C(C)(C)NC(=O)[C@@H](N)Cc2ccc(O)cc2)[C@@H](C)O)[C@@H](C)O)[C@@H](C)CC)C(=O)N[C@@H](C)C(=O)N[C@@H](CCC(N)=O)C(=O)NC(C)(C)C(=O)N1)C(=O)N[C@@H](CCC(=O)O)C(=O)N[C@@H](Cc1ccc(O)cc1)C(=O)N[C@@H](CC(C)C)C(=O)N[C@@H](CC(C)C)C(=O)N[C@@H](CCC(=O)O)C(=O)NCC(=O)NCC(=O)N1CCC[C@H]1C(=O)N[C@@H](CO)C(=O)N[C@@H](CO)C(=O)NCC(=O)N[C@@H](C)C(=O)N1CCC[C@H]1C(=O)N1CCC[C@H]1C(=O)N1CCC[C@H]1C(=O)N[C@@H](CO)C(N)=O` [Example 7, YAibQGT FRSDY SIα- MeLLD K^1KAQAib ^1KFIEY LLEGG PSSGA PPPS-NH2 (SEQ ID NO: 1)], for which, in data set [2], the AUC(0-t) worked out at 3.32 µM·h, the AUC(0-inf) came to 3.96 µM·h, the maximum concentration (Cmax) worked out at 24.3 nM and the half-life was 84.1 h. In addition, the Tmax in data set [2] was 29.3 h. The microsomal CLint in data set [3] (setting [4]) was less than 3.75 µL/min/mg. For the same molecule, the half-life in data set [3] (setting [5]) was greater than 3.08 h.
With `CC[C@H](C)[C@H](NC(=O)[C@H](Cc1ccccc1)NC(=O)[C@@H]1CCCCNC(=O)CC[C@H](NC(=O)COCCOCCNC(=O)CC[C@H](NC(=O)CCCCCCCCCCCCCCCCCCC(=O)O)C(=O)O)C(=O)NCCCC[C@H](NC(=O)[C@H](CCCCN)NC(=O)[C@H](CC(=O)O)NC(=O)[C@H](CC(C)C)NC(=O)[C@](C)(CC(C)C)NC(=O)[C@@H](NC(=O)[C@H](CO)NC(=O)[C@H](Cc2ccc(O)cc2)NC(=O)[C@H](CC(=O)O)NC(=O)[C@H](CO)NC(=O)[C@@H](NC(=O)[C@H](Cc2ccccc2)NC(=O)[C@@H](NC(=O)CNC(=O)[C@H](CCC(N)=O)NC(=O)C(C)(C)NC(=O)[C@@H](N)Cc2ccc(O)cc2)[C@@H](C)O)[C@@H](C)O)[C@@H](C)CC)C(=O)N[C@@H](C)C(=O)N[C@@H](CCC(N)=O)C(=O)NC(C)(C)C(=O)N1)C(=O)N[C@@H](CCC(=O)O)C(=O)N[C@@H](Cc1ccc(O)cc1)C(=O)N[C@@H](CC(C)C)C(=O)N[C@@H](CC(C)C)C(=O)N[C@@H](CCC(=O)O)C(=O)NCC(=O)NCC(=O)N1CCC[C@H]1C(=O)N[C@@H](CO)C(=O)N[C@@H](CO)C(=O)NCC(=O)N[C@@H](C)C(=O)N1CCC[C@H]1C(=O)N1CCC[C@H]1C(=O)N1CCC[C@H]1C(=O)N[C@@H](CO)C(N)=O` [Example 8, YAibQGT FTSDY SIα- MeLLD K^1KAQAib ^1KFIEY LLEGG PSSGA PPPS-NH2 (SEQ ID NO: 1)] (H-Y[Aib]QGTFTSDYSI[αMeL]LDKKAQ[Aib]KFIEYLLEGGPSSGAPPPS-NH2; linker 17-21 via X2 (inferred); N-terminus assumed), in data set [3] (human, s9), the half-life is greater than 3.08 h and the microsomal CLint is less than 3.75 µL/min/mg.
For the molecule `CC[C@H](C)[C@H](NC(=O)[C@H](Cc1ccccc1)NC(=O)[C@H](C)NC(=O)C(C)(C)NC(=O)[C@H](CCC(N)=O)NC(=O)[C@H](C)NC(=O)[C@@H]1CCCCNC(=O)CN(C(=O)COCCOCCNC(=O)CC[C@H](NC(=O)CCCCCCCCCCCCCCCCCCC(=O)O)C(=O)O)CC(=O)NCCCC[C@H](NC(=O)[C@](C)(CC(C)C)NC(=O)[C@@H](NC(=O)[C@H](CO)NC(=O)[C@H](Cc2ccc(O)cc2)NC(=O)[C@H](CC(=O)O)NC(=O)[C@H](CO)NC(=O)[C@@H](NC(=O)[C@H](Cc2ccccc2)NC(=O)[C@@H](NC(=O)CNC(=O)[C@H](CCC(N)=O)NC(=O)C(C)(C)NC(=O)[C@@H](N)Cc2ccc(O)cc2)[C@@H](C)O)[C@@H](C)O)[C@@H](C)CC)C(=O)N[C@@H](CC(=O)O)C(=O)N[C@@H](CCCCN)C(=O)N1)C(=O)N[C@@H](CCC(=O)O)C(=O)N[C@@H](Cc1ccc(O)cc1)C(=O)N[C@@H](CC(C)C)C(=O)N[C@@H](CC(C)C)C(=O)N[C@@H](CCC(=O)O)C(=O)NCC(=O)NCC(=O)N1CCC[C@H]1C(=O)N[C@@H](CO)C(=O)N[C@@H](CO)C(=O)NCC(=O)N[C@@H](C)C(=O)N1CCC[C@H]1C(=O)N1CCC[C@H]1C(=O)N1CCC[C@H]1C(=O)N[C@@H](CO)C(N)=O` [Example 21, YAibQGT FTSDY SIα- MeL^1KD K^1KAQAib AFIEY LLEGG PSSGA PPPS-NH2 (SEQ ID NO: 24)], in data set [2], the AUC(0-t) was found to be 4.6 µM·h, the AUC(0-inf) was found to be 5.94 µM·h, the Cmax amounted to 31.2 nM and the half-life was 105 h. Moreover, the Tmax in data set [2] stood at 40 h. The microsomal CLint at 1 μM in data set [3] (setting [4]) was less than 3.75 µL/min/mg. Further, the half-life at 1 μM in data set [3] (setting [5]) was greater than 3.08 h.

For orientation: EC50 means the concentration that produces a half-maximal response. Usually Cmax stands for the maximum level reached in the sampled fluid or tissue. As a reminder, the Tmax is the time from dosing to the highest level.
